In US20200331904A1, “3-AMINO-[1,2,4]-TRIAZOLE DERIVATIVES AND THEIR USE FOR CONTROLLING UNDESIRED PLANT GROWTH” (Bayer CropScience Aktiengesellschaft, priority 2017, published 2020):

Experiments:
Format in all cases: in vivo
[1] = system: Matricaria inodora; assay: Pre-emergence herbicidal efficacy, MATIN
Summary of the method: (§1)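 Visual percent activity relative to untreated plants (0% = like control, 100% = dead), scored about 3 weeks after treatment under greenhouse conditions.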

[2] = system: Viola tricolor; assay: Pre-emergence herbicidal efficacy, VIOTR
Summary of the method: as §1

[3] = system: Veronica persica; assay: Post-emergence herbicidal efficacy, VERPE
From the text: (§2) ABUTH: Abutilon theophrasti ALOMY: Alopecurus myosuroides AMARE: Amaranthus retroflexus AVEFA: Avena fatua CYPES: Cyperus esculentus ECHCG: Echinochloa crus-galli LOLMU: Lolium multiflorum MATIN: Matricaria inodora PHBPU: Ipomoea purpurea POLCO: Polygonum convolvulus SETVI: Setaria viridis STEME: Stellaria media VERPE: Veronica persica VTOTR: Viola tricolor
(§3) C.2 Post-Emergence Herbicidal Action and Crop Plant Compatibility
(§4) Seeds of monocotyledonous and dicotyledonous weeds and crop plants are placed in sandy loam in plastic or organic planting pots, covered with soil and cultivated in a greenhouse under controlled growth conditions. 2 to 3 weeks after sowing, the test plants are treated at the one-leaf stage. The compounds of the invention, formulated in the form of wettable powders (WP) or as emulsion concentrates (EC), are then sprayed onto the green parts of the plants as aqueous suspension or emulsion with addition of 0.5% additive at a water application rate of […] (converted). After the test plants had been kept in the greenhouse under optimum growth conditions for about 3 weeks, the activity of the preparations is rated visually in comparison to untreated controls. For example, 100% activity=the plants have died, 0% activity=like control plants.

[4] = system: Viola tricolor; assay: Post-emergence herbicidal efficacy, VIOTR
From the text: as §2, §3, §4

[5] = system: Stellaria media; assay: Pre-emergence herbicidal efficacy, STEME
Summary of the method: as §1

[6] = system: Amaranthus retroflexus; assay: Pre-emergence herbicidal efficacy, AMARE; conditions: Table B2, application rate 320 g/ha, scored visually after about 3 weeks vs untreated controls
Summary of the method: as §1

[7] = system: Veronica persica; assay: Pre-emergence herbicidal efficacy, VERPE; conditions: Table B2, application rate 320 g/ha, scored visually after about 3 weeks vs untreated controls
Summary of the method: as §1

[8] = system: Polygonum convolvulus; assay: Pre-emergence herbicidal efficacy, POLCO; conditions: Table B2, application rate 320 g/ha, scored visually after about 3 weeks vs untreated controls
From the text: C.1 Pre-Emergence Herbicidal Action and Crop Plant Compatibility
Seeds of monocotyledonous and dicotyledonous weed plants and crop plants are placed in plastic or organic planting pots and covered with soil. The compounds of the invention, formulated in the form of wettable powders (WP) or as emulsion concentrates (EC), are then applied onto the surface of the covering soil as aqueous suspension or emulsion with addition of 0.5% additive at a water application rate of […] (converted). After the treatment, the pots are placed in a greenhouse and kept under good growth conditions for the trial plants. After about 3 weeks, the effect of the preparations is scored visually in comparison with untreated controls as percentages. For example, 100% activity=the plants have died, 0% activity=like control plants.
as §2

[9] = application rate 320 g/ha, scored visually after about 3 weeks
[10] = application rate 1280 g/ha, rated visually after about 3 weeks
[11] = application rate 320 g/ha, rated visually after about 3 weeks (Table B7)
[12] = Table B2, application rate 320 g/ha, scored visually after about 3 weeks vs untreated controls

CC(=O)N1CCn2nc(NC3CCOc4ccccc43)nc2C1 (centres unmarked) [Example I-068]
Herbicidal efficacy against MATIN [1, 9]: 100% | Herbicidal efficacy against VIOTR [2, 9]: 100% | Herbicidal efficacy against VERPE [3, 10]: 90% | Herbicidal efficacy against VIOTR [4, 10]: 80% | Herbicidal efficacy against STEME [5, 9]: 100%

O=S(=O)(C1CC1)N1CCn2nc(NC3CCCc4ccccc43)nc2C1 (centres unmarked) [Example I-087]
Herbicidal efficacy against MATIN [1, 9]: 100% | Herbicidal efficacy against VIOTR [2, 9]: 100% | Herbicidal efficacy against VERPE [3, 11]: 80% | Herbicidal efficacy against VERPE [3, 10]: 90% | Herbicidal efficacy against VIOTR [4, 11]: 80% | Herbicidal efficacy against VIOTR [4, 10]: 80% | Herbicidal efficacy against STEME [5, 9]: 100%

Cc1ccc2c(c1)C(Nc1nc3n(n1)CCN(C(=O)c1cccc(Cl)c1)C3)C(C)C2 (centres unmarked) [Example I-170]
Herbicidal efficacy against MATIN [1, 9]: 90% | Herbicidal efficacy against VIOTR [2, 9]: 100% | Herbicidal efficacy against VERPE [3, 11]: 90% | Herbicidal efficacy against VIOTR [4, 11]: 80% | Herbicidal efficacy against STEME [5, 9]: 100%

Cc1ccc2c(c1)[C@H](Nc1nc3n(n1)CCN(S(=O)(=O)C1CC1)C3)[C@@H](C)C2 [Example I-192]
Herbicidal efficacy against MATIN [1, 12]: 100% | Herbicidal efficacy against VIOTR [2, 12]: 100% | Herbicidal efficacy against AMARE [6]: 100% | Herbicidal efficacy against VERPE [7]: 100% | Herbicidal efficacy against VERPE [3, 11]: 80% | Herbicidal efficacy against VIOTR [4, 11]: 80% | Herbicidal efficacy against POLCO [8]: 100% | Herbicidal efficacy against STEME [5, 12]: 100%

Cc1ccc2c(c1)[C@H](Nc1nc3n(n1)CCN(S(=O)(=O)Cc1ccccc1)C3)[C@@H](C)C2 [Example I-194]
Herbicidal efficacy against MATIN [1, 9]: 90% | Herbicidal efficacy against VIOTR [2, 9]: 100% | Herbicidal efficacy against VERPE [3, 11]: 100% | Herbicidal efficacy against VIOTR [4, 11]: 80% | Herbicidal efficacy against STEME [5, 9]: 100%

Cc1ccc2c(c1)[C@H](Nc1nc3n(n1)CCN(S(=O)(=O)c1ccccc1Cl)C3)[C@@H](C)C2 [Example I-195]
Herbicidal efficacy against MATIN [1, 9]: 90% | Herbicidal efficacy against VIOTR [2, 9]: 100% | Herbicidal efficacy against VERPE [3, 11]: 80% | Herbicidal efficacy against VERPE [3, 10]: 90% | Herbicidal efficacy against VIOTR [4, 11]: 80% | Herbicidal efficacy against VIOTR [4, 10]: 90% | Herbicidal efficacy against STEME [5, 9]: 100%

Cc1ccc2c(c1)[C@H](Nc1nc3n(n1)CCN(S(=O)(=O)Cc1ccccc1)C3)CCC2 [Example I-202]
Herbicidal efficacy against MATIN [1, 9]: 90% | Herbicidal efficacy against VIOTR [2, 9]: 100% | Herbicidal efficacy against VERPE [3, 11]: 80% | Herbicidal efficacy against VIOTR [4, 11]: 80% | Herbicidal efficacy against STEME [5, 9]: 100%

O=C1CCn2nc(NC3CCc4ccccc43)nc2N1CC1CC1 (centres unmarked) [Example I-219]
Herbicidal efficacy against MATIN [1, 9]: 100% | Herbicidal efficacy against VIOTR [2, 9]: 100% | Herbicidal efficacy against VERPE [3, 10]: 90% | Herbicidal efficacy against VIOTR [4, 10]: 80% | Herbicidal efficacy against STEME [5, 9]: 100%
